Assay results as given in US20180256537A1, “METHODS FOR SURVIVAL AND REJUVENATION OF DERMAL FIBROBLASTS USING PKC ACTIVATORS” (priority 2015, published 2018).
Like-named read-outs stand apart in the source and are kept apart here.

What was measured:
[1] = system: squamous cell carcinoma and melanoma; conditions: used topically; cited from earlier work
NCI 60 cell line screen = conditions: cited from earlier work
Erk1/2 [2] = conditions: RasGRP3-dependent manner; cited from earlier work
human skin fibroblasts [3] = assay: Protection of human skin fibroblasts under serum starvation (microscopy); assay type: cell-based; conditions: for viability and cellular integrity, with or without Erk inhibitor: serum deprived culture 5 days
Procedure: Skin fibroblast samples AG09555 (isolated and banked from a healthy person) and AG04560 (isolated and banked from a healthy person; Aging Cell Culture Repository of the National Institute on Aging) were obtained from the Coriell Institute for Medical Research (Camden, N.J.). Fresh fibroblasts were isolated from a skin punch biopsy (2-3 mm, upper arm) from a healthy subject (0078F45). The skin biopsy was conducted by qualified personnel under the supervision of Dr. Shirley Neitch with IRB approval of Marshall University (Huntington, W. Va.). All subjects signed informed consent forms under Marshal University rules and regulations. The method for isolating fibroblasts from skin biopsies was similar to the method previously described (Zhao et al, 2002; Khan and Alkon, 2006).
(§1) Primary skin fibroblasts isolated from skin biopsies were maintained in Dulbecco's Modified Eagle Medium (DMEM) with low glucose (Invitrogen, Grand Island, N.Y.) supplemented with 10% FBS in 6-well culture dishes (37° C., 5% CO2, 90% humidity) until the cells reached 90-100% confluence. Cells were cultured in completely serum-free medium to simulate stress conditions. After culture in serum-free media for 24 hours, cells were treated with vehicle, 0.3 nM bryostatin1, or 5 nM picolog. […] Nanomolar concentrations of picolog were previously found to be effective for cellular activation (Khan et al, 2009). The condition of the cultured skin fibroblasts was monitored with an inverted cell culture microscope (Westover Digital AMID Model 2000, Westover Scientific, Bothell, Wash.), controlled by a computer and images were captured with image acquisition software (Micron 2.0.0, Westover Scientific).

human skin fibroblasts [4] = assay: Cell viability test by MTT assay; assay type: cell-based; conditions: 5 nM, serum starvation 15 days, versus untreated cells
Procedure: as §1
Cell viability assay was conducted by measuring 3-(4,5-dimethylthiazol-2-yl)-2,5-diphenyltetrazolium (MTT) bromide dye absorbance. After treatment, cells were labeled with MTT and dissolved by adding SDS-HCl solution to each well and mixing thoroughly with a pipette tip. Absorbance was read at 570 nm using a microplate reader. Data were presented in terms of relative cell viability.

protein kinase C = conditions: (−)-enantiomer; cited from earlier work
[5] = system: matrix metalloproteins 1, 3, 9, 10 and 11 (MMP's); conditions: cited from earlier work
Erk1/2 [6] = assay: Immunoblot analysis of Erk activation in serum-deprived fibroblasts; assay type: cell-based, human
Procedure: as §1
(§2) Protein lysates (20 μg of protein each) were boiled in 2× Laemmli buffer for 10 min and separated using a 10% […] Tris-Glycine gel (or 4-20% gradient Tris-Glycine gel for caspase-8). […] Signal intensities of the images were recorded in the ImageQuant RT-ECL (GE Life Sciences, Piscataway, N.J.) and densitometric quantification was performed using the IMAL software (Blanchette Rockefeller Neurosciences Institute, Morgantown, W. Va.). […]

[7] = cited from earlier work
caspase-8 = assay: Immunoblot analysis of caspase-8 expression in dermal fibroblasts; assay type: cell-based, human
Procedure: as §1, §2

[8] = system: human skin equivalents (HSEs); assay: Cell survival within human skin equivalents (HSEs); assay type: cell-based
Procedure: The Clonetics™ keratinocyte system containing normal adult human epidermal keratinocytes (NHEK) was used as source of epidermal keratinocytes (Lonza, Walkersville, Md.). Human adult epidermal keratinocyte cells were cultured in keratinocyte basal medium supplemented with appropriate growth factors (Clonetics KGM-Gold™ BulletKit™ [cat#00192060] contains one 500 ml bottle of keratinocyte basal medium-gold supplemented with bovine pituitary extract (BPE), 2 ml; hEGF, 0.5 ml; insulin, 0.5 ml; hydrocortisone, 0.5 ml; transferrin, 0.5 ml; epinephrine, 0.25 ml; GA-1000, 0.5 ml) in T25 culture flasks in an incubator at 37° C., 5% CO2, and 90% humidity. The growth medium was changed the day after seeding and every other day thereafter. Keratinocytes were used up to 18 population doublings. All cell preparations tested negative for mycoplasma, bacteria, yeast, and fungi. The condition of the skin keratinocytes was monitored with an inverted cell culture microscope (Westover Digital AMID Model 2000, Westover Scientific), controlled by a computer and images were captured using image acquisition software (Micron 2.0.0, Westover Scientific).
HSEs have been used commercially as clinical skin substitutes (Orcel® from FortiCell Bioscience, Englewood Cliffs, N.J.; FDA approved in 2001/2008; Apligraf® from Genzyme Tissue Repair Corporation, Cambridge, Mass., FDA approved in 2007) and as in vitro models for skin biochemical tests and toxicity tests (Mertsching et al, 2008; Zhang and Michniak-Kohn, 2012). We engineered an HSE composed of both epidermal and dermal layers; keratinocytes and fibroblasts were utilized to prepare the bilayer structures (Shevchenko et al, 2010). Dermal fibroblasts were cultured on a 6-well collagen-coated surface (Biocoat Cell Environment, Becton Dickinson, Bedford, UK) or BD BIOCOAT™ plates (BD Biosciences, San Jose, Calif.). Fibroblast cells were maintained in DMEM with low glucose (Invitrogen) supplemented with 10% FBS, and were grown to 100% confluence. Culture medium was removed and the cells were washed three times with DMEM (without serum) to remove all growth factors. Previously cultured epidermal keratinocytes were added to the fibroblasts as the second layer (FIG. 1). […] The condition of the HSEs was monitored with an inverted cell culture microscope (Westover Digital AMID Model 2000, Westover Scientific), controlled by a computer and images were captured via image acquisition software (Micron 2.0.0, Westover Scientific).

PKC [9] = conditions: Table 1, bryologs; read-out: PKC Affin; cited from earlier work
PKC [10] = conditions: [3H] phorbol dibutyrate competition; cited from earlier work
[11] = cited from earlier work; remark: listed apart in the source
PKC [12] = conditions: cited from earlier work

For `C/C=C(/C)C(=O)O[C@H]1C(C)=C[C@]23C(=O)[C@@H](C=C(CO)[C@@H](O)[C@]12O)[C@H]1[C@@H](C[C@H]3C)C1(C)C` [Ingenol-3-angelate], the antitumor activity [1] is given as “exhibits antitumor activity”.
For `CC1=CC[C@H](C)C(C)(C)[C@@H]1/C=C/C(C)=C/CC[C@@]1(CO)[C@H](CCCO)/C(=C(/C)C=O)CC[C@]1(C)O` [Iripallidal], the “GI50 (concentration required to inhibit growth by 50%)” value (NCI 60 cell line screen) is listed as “micromolar to nanomolar range” and the “phosphorylation of Erk1/2” value (Erk1/2 [2]) is listed as “induces phosphorylation of Erk1/2”.
For `CCCCCCCC(=O)O[C@H]1/C(=C/C(=O)OC)CC2C[C@H](CO)OC(=O)C[C@H](O)C[C@@H]3CCC[C@H](C[C@@H]4CCO[C@H](/C=C/C(C)(C)[C@]1(O)O2)O4)O3` [picolog], the “cell survival of human skin fibroblasts” value (human skin fibroblasts [3]; 5 nM, serum free, 15 days) was “increased cell survival” and the “relative cell viability (MTT)” value (human skin fibroblasts [4]) was “increased the relative viability of fibroblast cells”.
For Octylindolactam V, the EC50 (protein kinase C) is given as 0.029 µM.
For `CCC/C=C/C=C/C(=O)O[C@H]1/C(=C/C(=O)OC)C[C@H]2C[C@H]([C@@H](C)O)OC(=O)C[C@H](O)C[C@@H]3C[C@H](OC(C)=O)C(C)(C)C(O)(C[C@@H]4C/C(=C/C(=O)OC)C[C@H](/C=C/C(C)(C)[C@]1(O)O2)O4)O3` [Bryostatin-1], the “production of matrix metalloproteins 1, 3, 9, 10 and 11” value [5] is listed as “inhibits the production”, the “activation of Erk1/2 (p-Erk/Erk)” value (Erk1/2 [6]; 0.3 nM, serum-free conditions) is listed as “induced activation of Erk1/2” and the toxicity ([7]; 20 μg/week) is listed as “no toxicity”. The adverse effect ([7]; more than 35 μg/week) was “may be associated with muscle pain”, the “caspase-8 expression levels, time course” value (caspase-8; after 3 days of treatment) was “greatest decrease” and the “caspase-8 expression levels in cell lysate” value (caspase-8; treated versus control fibroblasts) was “reduced expression levels of caspase-8”. For the same compound, the “cellular integrity of freshly isolated fibroblasts” value (human skin fibroblasts [3]; 0.3 nM, 5 days serum-free, 6-well plates) was “healthy and appear to be normal”, the “percentage of viable fibroblasts” value (human skin fibroblasts [3]; 0.3 nM, 5 days serum-free, treated versus control group) was “lower percentage of viable fibroblast in the control group” and the “loss of dermal fibroblast cells” value (human skin fibroblasts [3]; 0.3 nM, 15 days serum free culture) was “no significant loss of dermal fibroblast cells”. For the same compound, the “structural integrity and number of viable cells” value (human skin fibroblasts [3]; 0.3 nM, 35 days serum free culture, versus control group) was “greater structural integrity and a higher number of live, viable cells”, the “cellular integrity of collagen matrix supported fibroblasts” value (human skin fibroblasts [3]; 25 days serum-starved) was “maintains the cellular integrity” and the “viability and cellular integrity, with or without Erk inhibitor” value (human skin fibroblasts [3]) was “showed the greatest viability and good cellular integrity”. The “survival of banked skin fibroblasts” value (human skin fibroblasts [3]; sub-nanomolar amounts, 20 days serum starved) was “prevented the death of human skin fibroblasts”, the “protective effect in HSEs over time” value ([8]; 9 days versus 12 days in culture) was “decreases as a function of time” and the “fibroblast survival and viability in HSEs versus untreated” value ([8]; single dose and two dose treated HSEs) was “significantly greater”. The “fibroblast cell death in HSEs” value ([8]; single treatment 0.3 nM, versus untreated HSEs) was “showed fewer dead fibroblast cells overall” and the “survival of fibroblast cells in HSEs, two doses versus single dose” value ([8]; two doses (0.3 nm) versus single 0.3 nM dose) was “greater than fibroblasts in HSEs receiving a single 0.3 nM dose”.
For `COc1cccc(-c2cc(=O)c3ccccc3o2)c1N` [PD98059], the “effect on bryostatin-1 induced Erk activation” value (Erk1/2 [6]; PD98059 30 μM with bryostatin-1) was “significantly blocked” and the “viability and cellular integrity, with or without Erk inhibitor” value (human skin fibroblasts [3]) was “lowered the cell protective effects of bryostatin-1”.
For `CCCCCCCC(=O)O[C@H]1/C(=C/C(=O)OC)C[C@H]2C[C@H](CO)OC(=O)C[C@H](O)C[C@@H]3CCC[C@H](C[C@@H]4CCO[C@H](/C=C/C(C)(C)[C@]1(O)O2)O4)O3` [Analog 1], the Ki (PKC [9]) is given as 0.00025 µM.
In the case of `CC1=C[C@]23C(=O)[C@@H](C=C(COC(=O)c4ccccc4)[C@@H](O)[C@]2(O)[C@H]1OC(=O)c1ccccc1)[C@H]1[C@@H](C[C@H]3C)C1(C)C` [Ingenol 3,20-dibenzoate], the Ki (PKC [10]) is listed as 0.24 µM.
For `CCC/C=C/C=C/C(=O)O[C@H]1/C(=C/C(=O)OC)C[C@H]2C[C@H]([C@@H](C)O)OC(=O)C[C@H](O)C[C@@H]3C[C@H](OC(C)=O)C(C)(C)[C@](O)(C[C@@H]4C/C(=C/C(=O)OC)C[C@H](/C=C/C(C)(C)[C@]1(O)O2)O4)O3` [Bryostatin-1], the “time detectable in the blood” value ([11]; after a single injection) is listed as 14 days, the “half-life (t1/2) in the blood stream” value ([11]; blood) is listed as 1 h and the “crossing of the blood-brain barrier” value ([11]; in vivo) is listed as “crosses the blood-brain barrier”. The “share of initial dose in the blood” value ([11]; intravenous injection, at 100 hrs) was 1%.
In the case of `CCC1CC1CC1CC1CC1CC1CC1CC1CC1CC1CC1CC1CCC(=O)OC` (centres unmarked) [DHA-CP6, cyclopropanated docosahexaenoic acid methyl ester], the effective concentration (PKC [12]) is given as 10 nM.
